Data reported in PubChem BioAssay AID1963982 (Molecular Pharmacology Branch, DTP, NCI, 2024).

Tested on: 313798-341-R-J2-PDC spheroids, viability
Assay: Anticancer human tumor 313798-341-R-J2-PDC patient-derived cervical squamous cell carcinoma cell line growth inhibition [PI3K]
Settings: spheroids with HUVEC and MSC; for IC50: curve of first compound; for viability, T/C: stronger effect = lower value; active = viability on the fitted dose curve at most 10% of control; inactive = the rest
How it was run: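 Multi-cell spheroids combine tumor cells with HUVEC and human MSCs, treated with targeted agents alone or with inavolisib, alpelisib, duvelisib or copanlisib. Concentrations fall in half-log steps from at or near clinical Cmax, or from 10 microM where Cmax is unknown; viability read-out.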

[1] = second compound 0.0316 µM, first compound 0.000316 µM
[2] = second compound 0.0316 µM, first compound 0.001 µM
[3] = second compound 0.0316 µM, first compound 0.00316 µM
[4] = second compound 0.0316 µM, first compound 0.01 µM
[5] = second compound 0.0316 µM, first compound 0.0316 µM
[6] = second compound 0.0316 µM, first compound 0.1 µM
[7] = second compound 0.1 µM, first compound 0.000316 µM
[8] = second compound 0.1 µM, first compound 0.001 µM
[9] = second compound 0.1 µM, first compound 0.00316 µM
[10] = second compound 0.1 µM, first compound 0.01 µM
[11] = second compound 0.1 µM, first compound 0.0316 µM
[12] = second compound 0.1 µM, first compound 0.1 µM
[13] = second compound 0.316 µM, first compound 0.000316 µM
[14] = second compound 0.316 µM, first compound 0.001 µM
[15] = second compound 0.316 µM, first compound 0.00316 µM
[16] = second compound 0.316 µM, first compound 0.01 µM
[17] = second compound 0.316 µM, first compound 0.0316 µM
[18] = second compound 0.316 µM, first compound 0.1 µM
[19] = second compound 1 µM, first compound 0.000316 µM
[20] = second compound 1 µM, first compound 0.001 µM
[21] = second compound 1 µM, first compound 0.00316 µM
[22] = second compound 1 µM, first compound 0.01 µM
[23] = second compound 1 µM, first compound 0.0316 µM
[24] = second compound 1 µM, first compound 0.1 µM
[25] = second compound 3.16 µM, first compound 0.000316 µM
[26] = second compound 3.16 µM, first compound 0.001 µM
[27] = second compound 3.16 µM, first compound 0.00316 µM
[28] = second compound 3.16 µM, first compound 0.01 µM
[29] = second compound 3.16 µM, first compound 0.0316 µM
[30] = second compound 3.16 µM, first compound 0.1 µM
[31] = second compound 10 µM, first compound 0.000316 µM
[32] = second compound 10 µM, first compound 0.001 µM
[33] = second compound 10 µM, first compound 0.00316 µM
[34] = second compound 10 µM, first compound 0.01 µM
[35] = second compound 10 µM, first compound 0.0316 µM
[36] = second compound 10 µM, first compound 0.1 µM
[37] = second compound 0.0316 µM, first compound 0.316 µM
[38] = second compound 0.0316 µM, first compound 1 µM
[39] = second compound 0.0316 µM, first compound 3.16 µM
[40] = second compound 0.0316 µM, first compound 10 µM
[41] = second compound 0.1 µM, first compound 0.316 µM
[42] = second compound 0.1 µM, first compound 1 µM
[43] = second compound 0.1 µM, first compound 3.16 µM
[44] = second compound 0.1 µM, first compound 10 µM
[45] = second compound 0.316 µM, first compound 0.316 µM
[46] = second compound 0.316 µM, first compound 1 µM
[47] = second compound 0.316 µM, first compound 3.16 µM
[48] = second compound 0.316 µM, first compound 10 µM
[49] = second compound 1 µM, first compound 0.316 µM
[50] = second compound 1 µM, first compound 1 µM
[51] = second compound 1 µM, first compound 3.16 µM
[52] = second compound 1 µM, first compound 10 µM
[53] = second compound 3.16 µM, first compound 0.316 µM
[54] = second compound 3.16 µM, first compound 1 µM
[55] = second compound 3.16 µM, first compound 3.16 µM
[56] = second compound 3.16 µM, first compound 10 µM
[57] = second compound 10 µM, first compound 0.316 µM
[58] = second compound 10 µM, first compound 1 µM
[59] = second compound 10 µM, first compound 3.16 µM
[60] = second compound 10 µM, first compound 10 µM
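Note: spheroids exposed to compounds for seven days.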
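Throughout, for viability, T/C: 100% = DMSO vehicle control viability.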

CC(=O)c1c(C)c2cnc(Nc3ccc(N4CCNCC4)cn3)nc2n(C2CCCC2)c1=O + CC(Nc1ncnc2nc[nH]c12)c1cc2cccc(Cl)c2c(=O)n1-c1ccccc1
inactive: viability, T/C [1] 100% | viability, T/C [2] 112% | viability, T/C [3] 98.8% | viability, T/C [4] 102% | viability, T/C [5] 101% | viability, T/C [6] 106% | viability, T/C [7] 104% | viability, T/C [8] 104% | viability, T/C [9] 108% | viability, T/C [10] 109% | viability, T/C [11] 103% | viability, T/C [12] 97.4% | viability, T/C [13] 99.6% | viability, T/C [14] 105% | viability, T/C [15] 91.1% | viability, T/C [16] 110% | viability, T/C [17] 95.3% | viability, T/C [18] 104% | viability, T/C [19] 108% | viability, T/C [20] 107% | viability, T/C [21] 94.1% | viability, T/C [22] 106% | viability, T/C [23] 99.2% | viability, T/C [24] 106% | viability, T/C [25] 100% | viability, T/C [26] 108% | viability, T/C [27] 104% | viability, T/C [28] 97% | viability, T/C [29] 100% | viability, T/C [30] 103% | viability, T/C [31] 93% | viability, T/C [32] 94.8% | viability, T/C [33] 92.6% | viability, T/C [34] 98.2% | viability, T/C [35] 92.3% | viability, T/C [36] 87.5%
> 0.1 µM: IC50 (second compound 0.0316 µM) | IC50 (second compound 0.1 µM) | IC50 (second compound 0.316 µM) | IC50 (second compound 1 µM) | IC50 (second compound 3.16 µM) | IC50 (second compound 10 µM)

CC(C)n1nc(-c2ccc3oc(N)nc3c2)c2c(N)ncnc21 + CC(Nc1ncnc2nc[nH]c12)c1cc2cccc(Cl)c2c(=O)n1-c1ccccc1
0.05 µM: IC50 (second compound 1 µM)
0.0555 µM: IC50 (second compound 3.16 µM)
0.0588 µM: IC50 (second compound 0.0316 µM)
0.0254 µM: IC50 (second compound 10 µM)
inactive: viability, T/C [1] 102% | viability, T/C [2] 96.8% | viability, T/C [3] 108% | viability, T/C [4] 96.5% | viability, T/C [5] 65.7% | viability, T/C [6] 36.6% | viability, T/C [7] 109% | viability, T/C [8] 92.9% | viability, T/C [9] 97% | viability, T/C [10] 101% | viability, T/C [11] 67.9% | viability, T/C [12] 39.1% | viability, T/C [13] 101% | viability, T/C [14] 94.2% | viability, T/C [15] 100% | viability, T/C [16] 97.4% | viability, T/C [17] 66.4% | viability, T/C [18] 40.2% | viability, T/C [19] 100% | viability, T/C [20] 91.5% | viability, T/C [21] 99.8% | viability, T/C [22] 89.7% | viability, T/C [23] 58.8% | viability, T/C [24] 36.8% | viability, T/C [25] 117% | viability, T/C [26] 94.2% | viability, T/C [27] 93.7% | viability, T/C [28] 82.2% | viability, T/C [29] 55.5% | viability, T/C [30] 40.6% | viability, T/C [31] 87.6% | viability, T/C [32] 91.9% | viability, T/C [33] 78.5% | viability, T/C [34] 57.1% | viability, T/C [35] 51.9% | viability, T/C [36] 27.1%
0.0651 µM: IC50 (second compound 0.316 µM)
0.0647 µM: IC50 (second compound 0.1 µM)

CC1(C)CCC(CN2CCN(c3ccc(C(=O)NS(=O)(=O)c4ccc(NCC5CCOCC5)c([N+](=O)[O-])c4)c(Oc4cnc5[nH]ccc5c4)c3)CC2)=C(c2ccc(Cl)cc2)C1 + CC(Nc1ncnc2nc[nH]c12)c1cc2cccc(Cl)c2c(=O)n1-c1ccccc1
inactive: viability, T/C [5] 104% | viability, T/C [6] 86.6% | viability, T/C [37] 107% | viability, T/C [38] 99.5% | viability, T/C [39] 85.2% | viability, T/C [40] 43.6% | viability, T/C [11] 91.6% | viability, T/C [12] 108% | viability, T/C [41] 85.4% | viability, T/C [42] 89.2% | viability, T/C [43] 84.8% | viability, T/C [44] 49.1% | viability, T/C [17] 99.4% | viability, T/C [18] 101% | viability, T/C [45] 102% | viability, T/C [46] 102% | viability, T/C [47] 82.4% | viability, T/C [48] 50% | viability, T/C [23] 103% | viability, T/C [24] 100% | viability, T/C [49] 94.5% | viability, T/C [50] 96.8% | viability, T/C [51] 74.4% | viability, T/C [52] 49.9% | viability, T/C [29] 103% | viability, T/C [30] 95.3% | viability, T/C [53] 85.2% | viability, T/C [54] 89.8% | viability, T/C [55] 79.8% | viability, T/C [56] 40.5% | viability, T/C [35] 82.1% | viability, T/C [36] 78.8% | viability, T/C [57] 87% | viability, T/C [58] 78.1% | viability, T/C [59] 62.3% | viability, T/C [60] 42.1%
6.37 µM: IC50 (second compound 10 µM)
9.98 µM: IC50 (second compound 1 µM)
7.56 µM: IC50 (second compound 3.16 µM)
8.41 µM: IC50 (second compound 0.0316 µM)
9.89 µM: IC50 (second compound 0.1 µM)
9.97 µM: IC50 (second compound 0.316 µM)

CCCS(=O)(=O)Nc1ccc(F)c(C(=O)c2c[nH]c3ncc(-c4ccc(Cl)cc4)cc23)c1F + CC(Nc1ncnc2nc[nH]c12)c1cc2cccc(Cl)c2c(=O)n1-c1ccccc1
inactive: viability, T/C [5] 103% | viability, T/C [6] 103% | viability, T/C [37] 108% | viability, T/C [38] 105% | viability, T/C [39] 96.5% | viability, T/C [40] 43% | viability, T/C [11] 112% | viability, T/C [12] 103% | viability, T/C [41] 90.3% | viability, T/C [42] 90.9% | viability, T/C [43] 92.8% | viability, T/C [44] 28.1% | viability, T/C [17] 92.6% | viability, T/C [18] 96.5% | viability, T/C [45] 101% | viability, T/C [46] 104% | viability, T/C [47] 93.9% | viability, T/C [48] 23.8% | viability, T/C [23] 112% | viability, T/C [24] 99.6% | viability, T/C [49] 98.8% | viability, T/C [50] 116% | viability, T/C [51] 98.8% | viability, T/C [52] 27.8% | viability, T/C [29] 107% | viability, T/C [30] 101% | viability, T/C [53] 118% | viability, T/C [54] 106% | viability, T/C [55] 90.1% | viability, T/C [56] 24.5% | viability, T/C [35] 95% | viability, T/C [36] 101% | viability, T/C [57] 91.2% | viability, T/C [58] 83.8% | viability, T/C [59] 69.2% | viability, T/C [60] 16.6%
4.69 µM: IC50 (second compound 10 µM)
6.39 µM: IC50 (second compound 3.16 µM)
6.52 µM: IC50 (second compound 0.316 µM)
6.79 µM: IC50 (second compound 0.1 µM)
7.03 µM: IC50 (second compound 1 µM)
8.61 µM: IC50 (second compound 0.0316 µM)
